# Experimental data as given in paper PMC10348910, “Epigenetic reprogramming of cell cycle genes by ACK1 promotes breast cancer resistance to CDK4/6 inhibitor” (Oncogene, 2023).
# Legend:
# [1] = test system: CCNB1, CCNB2 and CDC20 protein; experiment: immunoblotting of CCNB1, CCNB2 and CDC20; assay type: cell-based; conditions: breast cancer cell lysates
# From the text: Fig. 3 ACK1 inhibitor suppresses expression of cell cycle genes. A Cell lysates from vehicle or (R)-9b treated cells were immunoblotted using CCNB1, CCNB2 and CDC20 antibodies. B HCC-1395 and MDA-MB-231 cells were transfected with ACK1 and scrambled siRNAs, followed by qPCR using ACK1 primers, with 18S rRNA as internal control. C siRNA transfected cells were subjected to western blotting using ACK1 antibody, with Actin as loading control. RNA from silenced cells, (D) HCC-1395 and (E) MDA-MB-231 was subjected to qPCR using CCNB1, CCNB2 and CDC20 primers. 18S rRNA was used as housekeeping control. For (A) and (C), representative images of three independent experiments are shown. For (B, D, E), data are represented as the mean ± SEM. *p < 0.05, **p < 0.01, ***p < 0.001, unpaired two-tailed Student’s t test.
# Vehicle or (R)-9b (5 µM, overnight in serum free media) treated cells were lysed by sonication in receptor lysis buffer (RLB) and lysates were fractionated by SDS-PAGE, and transferred onto a PVDF membrane (Immobilon). […]
# [2] = test system: MCF7 xenografts; experiment: MCF7 xenograft in mammary fat pad; assay type: in vivo, female SCID mice; conditions: orally 36 mg/Kg or subcutaneously 24 mg/Kg
# Method: Fig. 6 (R)-9b inhibits breast cancer xenograft tumor growth in vivo. A 2 × 10^6 Cal-148 cells were injected in the 4th inguinal mammary fat pad of female SCID mice. Once the tumors were palpable, the mice were treated subcutaneously with either vehicle (Captisol; n = 8) or (R)-9b at 24 mg/Kg (n = 8) five times a week, for 4 weeks. The tumor volumes were measured twice a week. B, C The tumors were harvested and photographed, and the weights were recorded. D RNA was prepared from the tumors, followed by qRT-PCR to determine the levels of CCNB1, CCNB2 and CDC20 mRNA (n = 3 each). E and F 2 × 10^6 MCF7 cells were injected in the 4th inguinal mammary fat pad of female SCID mice with continuous supplementation of estrogen. Once the tumors were palpable, the mice were treated with vehicle (Captisol; n = 7), (R)-9b at 24 mg/Kg subcutaneously (n = 8), or orally with (R)-9b at 36 mg/Kg (n = 8), five times a week, for 4 weeks. The tumors were harvested, their weights were recorded and photographed. G Tumor lysates were subjected to immunoblotting using pACK1, CCNB1, CCNB2, CDC20 and Actin antibodies (n = 3 each). H RNA was prepared from the tumors, followed by qRT-PCR to determine the levels of CCNB1, CCNB2 and CDC20 mRNA (n = 3 each). Data are represented as the mean ± SEM. *p < 0.05; **p < 0.01; ***p < 0.001. For (C) and (D), unpaired two-tailed Student’s t test, and for (E) and (H), one way ANOVA was performed.
# In addition, effect of (R)-9b was assessed in ER^+/PR^+ breast cancer xenografts. Briefly, MCF7 cells were implanted in mammary fat pad of female SCID mice. Once the tumors were palpable, the mice were treated orally (36 mg/Kg) or injected subcutaneously with 24 mg/Kg of (R)-9b for 4 weeks. […] Further, RNA was isolated from the xenograft tumors and CDC20, CCNB1 and CCNB2 mRNA levels were examined.
# All animal experiments were performed using the standards for humane care in accordance with the NIH Guide for the Care and Use of Laboratory Animals. […] Tumor volumes were measured twice a week using calipers. […]
# [3] = test system: phospho-serine 139-γH2AX; experiment: γH2AX immunocytochemistry; assay type: cell-based; conditions: breast cancer cell lines, 48h
# Method: Breast cancer cells were grown over coverslips and treated with vehicle or (R)-9b. The cells were fixed in 2% paraformaldehyde and permeabilized. The cells were stained with phospho-serine 139-γH2AX antibody (Red), phalloidin (green) and DAPI. Fluorescent microscopic images were captured. […]
# breaks in breast cancer cell lines
# Breast cancer cell lines were treated with either vehicle or (R)-9b for 48h and stained with phospho-serine 139-γH2AX antibody (Red), phalloidin (green) and DAPI. Representative images of fluorescent microscopic analysis are shown.
compound,measurement,setting,value
CN1CCN(c2ccc(Nc3ncc(Cl)c(NC[C@H]4CCCO4)n3)cc2)CC1 [(R)-9b],"CCNB1, CCNB2 and CDC20 protein abundance",[1],decrease in respective protein abundance
same,"CDC20, CCNB1 and CCNB2 mRNA levels in tumors",[2],significant reduction
same,"CDC20, CCNB1 and CCNB2 protein levels in tumor lysates",[2],marked decrease
same,xenograft tumor growth,[2]; 4 weeks,significant loss of tumor growth
same,"γH2AX staining (DNA damage, double strand breaks)",[3],poor γH2AX staining
